Measured values taken from patent US20100021434A1, “Isolated Oligodendrocyte-Like Cells and Populations Comprising Same for the Treatment of CNS Diseases” (Ramot At Tel Aviv University Ltd., priority 2005, published 2010).

Tests used:
Format in all cases: cell-based
[1] = test system: mouse MSCs; test: Oligodendrocyte-like differentiation of mouse MSCs, immunostaining (A2B5, O4, MBP); details: for Fraction of A2B5+ cells: mouse MSCs, cytokines added to growth medium; for expression of the oligodendrocyte progenitor marker A2B5 (FIGS. 4A-C): MSCs of C57-EGFP mice, NT-3 50 ng/ml, IL-1β 20 ng/ml
Description: (§1) Oligodendrocyte-like Differentiation of mouse MSCs: 3.2*10^3 mMSCs per well from transgenic EGFP+ C57/b1 mice (that have constitutive expression of EGFP in all their cells), were cultured in growth medium (15% FCS, 5% HS, 2 mM L-glutamine, 0.001% β-mercaptoethanol, 10 ng/ml epidermal growth factor, 100 U/ml Penicillin, 100 μg/ml Streptomycin and 12.5 U/ml Nystatin in α-DMEM), and then transferred to mediums containing different cytokines, hormones and growth factors (See table 2 hereinbelow) that play roles in oligodendrocyte lineage differentiation process, to examine the effects of those substances on the cells. The cells were incubated in the differentiation mediums for 48 hours or 6 days, and then were fixed in 4% PFA for 5 minutes in RT and 20 minutes in 4° C. and photographed for morphological changes.
The fixed cells were then blocked in 5% goat serum (GS) stained with mouse anti-A2B5 antibodies (1:200; Chemicon) overnight, 4° C., washed twice in 5% GS, and appropriate goat anti mouse second Cy3 antibody (1:500; Jackson labs) for one hour, RT, in the dark. The cells were then examined for fluorescence and photographed by fluorescence Olympus IX70-S8F2 microscope with fluorescent light source and a U-MNU filter cube (Olympus). In all immuno-staining experiments, a sample was also stained with IInd antibodies only, as control, to detect any non-specific staining.

[2] = test system: mouse MSCs; test: Oligodendrocyte-like differentiation of mouse MSCs, morphology; details: MSCs of C57-EGFP transgenic mice, growth medium plus cytokines, 6 days
Description: as §1

[3] = test system: mouse MSCs; test: FACS analysis of differentiated mouse cells (A2B5, O4); details: EGFP mMSCs, IL-1β 20 ng/ml in growth medium, 4 days
Description: FIGS. 5A-D are graphs and tables illustrating an analysis of mouse MSCs following differentiation protocol in vitro. MSCs from the bone marrow of transgenic EGFP-expressing transgenic mice (A) were cultured in differentiation medium composed of standard growth medium supplemented by IL-1β (20 ng/ml), or in standard growth medium only (control; B) for 4 days. The cells were then stained by antibodies against oligodendrocyte progenitor marker A2B5, and analyzed by flow cytometry (A2B5 staining seen as black lines). Nonspecific staining by second antibody only was used as control (nonspecific staining seen as red lines), and quantitative measurements were made from the cross points of the two lines. Quantitative measurements (D) were made either on the total population (first row), or on the population with very small-sized events omitted (see gated area in A; second row in D).
FACS analysis of differentiated mouse cells: MSCs were harvested from the tissue culture flasks following […] in differentiation medium (See Table 3, in the Results, #4), alongside undifferentiated MSCs, and centrifuged at 1000×rpm for 10 minutes at room temperature. […] After two washes in flow buffer, the cells were resuspended in 0.5 ml PBS and were studied by a fluorescence activated cell sorter (FACS) Calibur™ using an argon ion laser, adjusted to an excitation wavelength of 488 nm (Becton Dickinson). […]

Molecule: CC1=C(/C=C/C(C)=C/C=C/C(C)=C/C(=O)O)C(C)(C)CCC1 [Retinoic acid, reference compound]
- Fraction of A2B5+ cells ([1]; 48 hours): 0%

Molecule: Interleukin-1β: interleukin 1 beta, cytokine from PeproTech added to growth medium
- expression of the oligodendrocyte progenitor marker A2B5 (FIGS. 4A-C) ([1]; 6 days): acquiring expression
- Fraction of A2B5+ cells ([1]; 48 hours): 1%
- Fraction of A2B5+ cells ([1]; 6 days): 3.8%
- cell morphology (FIGS. 3A-F) [2]: did not alter drastically
- percentage A2B5+ cells (FACS analysis) [3]: changes. Low

B1: Neurotrophin-3: neurotrophin 3, human polypeptide or mammalian homologue, from PeproTech (protein, UniProt P20783 139-257, looked up)
Neurotrophin-3: YAEHKSHRGEYSVCDSESLWVTDKSSAIDIRGHQVTVLGEIKTGNSPVKQYFYETRCKEARPVKNGCRGIDDKHWNSQCKTSQTYVRALTSENNKLVGWRWIRIDTSCVCALSRKIGRT
modifications: Neurotrophin-3
notes: neurotrophin 3, human polypeptide or mammalian homologue, from PeproTech
- expression of the oligodendrocyte progenitor marker A2B5 (FIGS. 4A-C) ([1]; 6 days): acquiring expression
- Fraction of A2B5+ cells ([1]; 48 hours): 1.9%
- Fraction of A2B5+ cells ([1]; 6 days): 2.7%
- cell morphology (FIGS. 3A-F) [2]: did not alter drastically
